In publication PMC10945332, “Precision peptide theranostics: developing N- to C-terminus optimized theranostics targeting cholecystokinin-2 receptor” (Theranostics, 2024):
Where two headings read alike, the source gives them in different places. Where a SMILES comes first, the peptide text is derived from it. [ ]: non-standard residue; d: D form. The star is where a group is joined. DOTA = O=C(O)CN1CCN(CC(=O)O)CCN(CC(=O)*)CCN(CC(=O)O)CC1; 1Nal = N[C@@H](Cc1cccc2ccccc12)C(=O)O; NMeF = CN[C@@H](Cc1ccccc1)C(=O)O; NMeNle = CCCC[C@H](NC)C(=O)O; Sar = CNCC(=O)O

Columns and labels:
human CCK2R = molecular target: T1, human CCK2R (Homo sapiens, UniProt P32239); assay: Competitive binding against [177Lu]Lu-DOTA-CP04 in A431-CCK2R cells; settings: linear peptide vs its Ga-DOTA form
T1 construct: stably transfected to over-express the human full-length CCK2R (A431-CCK2R); expressed in transfected cells
T1 sequence (P32239 1-447): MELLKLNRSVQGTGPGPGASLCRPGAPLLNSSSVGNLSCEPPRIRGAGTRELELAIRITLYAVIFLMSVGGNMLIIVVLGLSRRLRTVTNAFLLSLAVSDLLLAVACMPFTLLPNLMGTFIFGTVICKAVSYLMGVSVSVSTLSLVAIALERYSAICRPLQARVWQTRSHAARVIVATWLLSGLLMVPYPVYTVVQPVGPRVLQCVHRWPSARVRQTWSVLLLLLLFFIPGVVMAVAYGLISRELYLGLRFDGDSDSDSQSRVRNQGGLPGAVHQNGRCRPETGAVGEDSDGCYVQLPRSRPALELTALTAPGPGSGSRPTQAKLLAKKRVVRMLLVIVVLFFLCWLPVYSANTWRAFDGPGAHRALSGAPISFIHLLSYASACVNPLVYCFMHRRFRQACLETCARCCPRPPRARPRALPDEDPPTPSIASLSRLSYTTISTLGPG
Method: Materials and Methods: Biology […]
In Vitro CCK2R-Ligand Competitive Binding Assays
All CCK2R binding experiments were conducted using A431 (human epidermoid carcinoma) […]
cells stably transfected to over-express the human full-length CCK2R (A431-CCK2R) (gifted […]
by Dr. Elisabeth von Guggenberg, Medizinische Universität Innsbruck).[41] As a negative […]
control, A431 cells stably transfected with an empty vector were analysed simultaneously […]
(A431-EV). All A431 cells were maintained in DMEM (Gibco, Australia) media supplemented […]
with 10% foetal calf serum and 250 µg/mL G418 as described previously.[32]
The affinity of all peptides for the CCK2R was evaluated using competitive binding assays […]
Briefly, 48 hours before the experiment […]
cells were plated at a density of 300,000 cells per well in 12 well plates. On the day of the […]
experiment, linear peptides were diluted in DMEM supplemented with 1% foetal calf serum to […]
DOTA-CP04 was added to each dilution. Cells were washed twice in ice-cold binding buffer […]
(DMEM supplemented with 1% foetal calf serum) and resuspended in 1 mL of the pre-prepared […]
peptide mix before being incubated at room temperature for 1 hour. Post-incubation the media […]
was removed and kept for analysis (unbound fraction) and the cells were washed twice in ice- […]
cold PBS which was pooled with the unbound fraction. Finally, 1 M NaOH (150µL) was added […]
to the wells and allowed to incubate for 5 min before lysates were collected (bound fraction).
A small volume of lysate was kept aside to determine protein concentration using the Pierce® BCA protein assay kit (Thermo Fisher, Australia). All samples were analysed using the Perkin […]
normalised according to protein concentration. Half maximal inhibitory concentration (IC50) was determined using nonlinear regression calculated using Gr aphPad Prism Software (GraphPad Software, California, USA). […]

CCK2R = test system: CCK2R; parameters: method as in PMID 33826325; settings: cited from earlier work
[1] = format: physicochemical
Method: Lipophilicity, expressed as the octanol-water partition coefficient, constitutes an important property in drug action, influencing both pharmacokinetic and pharmacodynamics processes. The distribution coefficient (LogD7.4) of [^68Ga]Ga-DOTA-peptides was determined by measuring radioactivity distribution in the aqueous phase (phosphate buffer pH7.4) and the organic phase (n-octanol). […]
To determine the distribution coefficient (logD 7.4), 68Ga radiolabeled peptides [68Ga]Ga-DOTA-GA4, [68Ga]Ga-DOTA-GA7, and [68Ga]Ga-DOTA-GA11–GA13 were diluted to approximately 20 pmol/mL in PBS (pH 7.4) and an equal volume of n-octanol was added. The mixture was vortexed vigorously for 10 cycles of 1 min at room temperature before being centrifuged for 6 min to separate the two phases. Equal volumes from each phase were aliquoted into individual counting tubes and analysed for 1 min using the Perkin Elmer 2480 Wizard2™ gamma counter (PerkinElmer, Massachusetts, USA). The distribution coefficient was calculated using the following equation LogD = […]. […]

[2] = format: in vitro ADME, mouse
Method: Metabolic stability is an important determinant of the efficacy of peptide radiopharmaceuticals and their progression as promising theranostic candidates. In vitro, metabolic degradation through hepatic and renal enzymes can be assessed by utilizing liver and kidney tissue homogenates. Radiolabeled peptides [^68Ga]Ga-DOTA-GA4, and D-Ala substituted variants [^68Ga]Ga-DOTA-GA7, [^68Ga]Ga-DOTA-GA11-GA13 were incubated in liver and kidney mouse homogenates, in human serum at 37°C, and in HEPES buffer (pH 7.4) as a negative control. Following a time course experiment, the metabolites were analyzed using HPLC to quantify the % breakdown of the respective parent peptide. […]
To assess the stability of 68Ga radiolabeled peptides against enzymatic degradation, duplicate samples (750-900 pmol/mL, 2-5MBq) were incubated at 37 ℃ with pooled human serum, 15% […]
mouse kidney homogenate, 30% mouse liver homogenate or 20 mM HEPES, pH 7.3 (control).
Human blood was collected, and serum prepared using SSTII advance vacutainer tubes according to the manufacturer’s instructions (Becton Dickinson, New Jersey, USA). Mouse kidney and liver homogenates were prepared by washing the tissues in ice-cold HEPES buffer, pH 7.3 and placing them in pre-chilled tubes containing HEPES buffer and 2.38 mm metal beads (Mo-Bio Laboratories, Hilden, Germany). Tissues were homogenised using the PowerLyzer24 homogeniser (Qiagen, Hilden, Germany) according to the manufacturer’s instructions. 68Ga radiolabeled peptides were then incubated with the various lysates at 37 ℃ and samples were collected at 15, 30, 60 and 90 min. Reactions were terminated by addition of an equal volume of acetonitrile and centrifugation for 2 min at 15,000 rpm. Supernatants were diluted in water before being analysed by HPLC using a Kinetex C18 XB column (5µm

[3] = mouse, in vivo
Method: (§1) In order to assess these promising ligands as potential theranostics, the library of [^68Ga]Ga-DOTA-peptides was evaluated using static small animal PET imaging and quantifying biodistribution studies. This study was performed to investigate tumor uptake as well as the accumulation of radioligands in other organs. Mice bearing A431-CCK2R tumors were imaged at 1- and 2 hours post tracer injection, and tracer biodistribution was evaluated at the 1 hour and 2.5 hour time points to quantify tumor uptake and retention. […]
(§2) Small Animal PET Imaging and Biodistribution Studies
(§3) Female NSG mice (age 11-14 weeks) were sourced from Animal Resources Centre, (Canning Vale, Western Australia) and were inoculated subcutaneously on the right flank with 1-3 x 106 […]
(§4) A431-CCK2R cells in PBS:Matrigel (1:1). […]
(§5) Mice were assigned to imaging and/or biodistribution groups (tumour volumes: 119-327 mm3).
(§6) The respective 68Ga labelled tracer (1.63–3.81 MBq, 170µL, 13.7–14.2 pmoles) containing vehicle solution (75µL, DMSO:Tween 80: water, 2:2:6 v/v/v) was then administered to mice intravenously via tail vein injection. Three mice were euthanized for biodistribution 1 hour post injection (n=3) and selected tissues were excised, weighed, and counted using a Capintec (Captus 4000e) gamma counter. Three mice were anaesthetised using 1.5% isoflurane and imaged at 1 hour (n=3) and 2 hours (n=3) with a G8 Small Animal PET/CT scanner (Perkin […]
(§7) Elmer/Sofie Biosciences). A 10 min static PET scan was acquired, followed immediately by a CT scan (Supplementary Data, pS51–S55). PET images were acquired using the G8 acquisition engine software and reconstructed using a 3D maximal likelihood and expectation maximization (ML-EM) algorithm. PET images were analysed using VivoQuant software, version 3.0 (inviCRO Imaging Services and Software) to quantify maximum standardised uptake value in regions of interest (SUVmax). Background regions for imaging experiments were calculated by quantitating mean standardised uptake value (SUVmean) of the abdomen and gut region. The region of interest was selected due to low uptake in abdomen/gut during imaging. After imaging the 2-hour time point, mice organs were harvested for biodistribution […]
(§8) For blocking CCK2R binding a solution of N-[(3R)-2,3-Dihydro-1-[2-(2-methylphenyl)-2-oxoethyl]-2-oxo-5-phenyl-1H-1,4-benzodiazepin-3-yl]-N′-(3-methylphenyl)-urea (YM022; Sigma Aldrich) was used. YM022 (75µL of a 1 mg/ml solution constituting DMSO:Tween 80: water, 2:2:6 v/v/v) was added to the respective 68Ga labelled tracer (1.41–3.61 MBq, 100 µL, 13.7–14.2 pmoles) and this mixture ([…]) was administered in three mice intravenously via tail vein injection and organs harvested at 1 hour post injection for biodistribution analysis, as above.
(§9) All animal experiments were performed with the approval of the Peter MacCallum Cancer Centre Animal Experimentation Ethics Committee and in accordance with the Australian code for the care and use of animals for scientific purposes, 8th Edition, 2013 (AEEC Approval

in vivo = settings: female, NSG, mouse, iv, total radioactivity; for SUV at 1 h / SUV at 2 h: SUVmax
Method: as §1, §2, §3, §4, §5, §6, §7, §8, §9

[4] = 3 mg/kg, Uptake in A431-CCK2R Tumors, 1 hr Blocked
[5] = Uptake in A431-CCK2R Tumors, 1 hr

logD [1]	tissue uptake at 1 h [3, 4] [%ID/g]	tissue uptake at 1 h [3, 5] [%ID/g]	tissue uptake at 2.5 h ([3]; Uptake in A431-CCK2R Tumors) [%ID/g]	tissue uptake at 1 h ([3]; Uptake in Organs: Blood) [%ID/g]	tissue uptake at 1 h ([3]; Uptake in Organs: Heart) [%ID/g]	tissue uptake at 1 h ([3]; Uptake in Organs: Kidneys) [%ID/g]	tissue uptake at 1 h ([3]; Uptake in Organs: Liver) [%ID/g]	tissue uptake at 1 h ([3]; Uptake in Organs: Lungs) [%ID/g]	tissue uptake at 1 h ([3]; Uptake in Organs: Muscle) [%ID/g]	tissue uptake at 1 h ([3]; Uptake in Organs: Spleen) [%ID/g]	tissue uptake at 1 h ([3]; Uptake in Organs: Stomach) [%ID/g]	tissue to tissue ratio at 1 h (in vivo)	SUV at 1 h (in vivo) [SUV]	SUV at 2 h (in vivo) [SUV]	Compound	also measured
															CCCC[C@@H](C(=O)N[C@@H](CC(=O)O)C(=O)N[C@@H](Cc1cccc2ccccc12)C(N)=O)N(C)C(=O)[C@H](Cc1c[nH]c2ccccc12)NC(=O)CN(C)C(=O)[C@H](Cc1ccc(O)cc1)NC(=O)[C@H](C)NC(=O)[C@@H](CCC(=O)O)NC(=O)[C@@H](CCC(=O)O)NC(=O)[C@@H](CCC(=O)O)NC(=O)[C@@H](CCC(=O)O)NC(=O)[C@@H](CCC(=O)O)NC(=O)[C@H](N)CCC(=O)O [GA1, [D-Glu]6-Ala-Tyr-NMeGly-Trp-NMeNle-Asp-Nal-NH2] (H-[dE][dE][dE][dE][dE][dE]AY[Sar]W[NMeNle]D[1Nal]-NH2)	fold decrease in affinity for CCK2R without gallium coordinated DOTA at the N-terminus (human CCK2R): 5 fold; affinity to the CCK2R target (CCK2R; previously investigated): sub-nanomolar; IC50 (CCK2R; previously shown, Ga-DOTA-GA1 form, read-out: binding affinity (IC50) against CCK2R): 50 pM
-3.56 ± 0.01	2.07 ± 0.15	5.6 ± 1.16	5.42 ± 0.7	0.46 ± 0.08	0.27 ± 0.08	7.38 ± 1.54	0.29 ± 0.01	0.59 ± 0.02	0.09 ± 0.02	0.34 ± 0.08	1.04 ± 0.06	14.4 ± 2.23	0.39	0.34	CCCC[C@@H](C(=O)N[C@@H](CC(=O)O)C(=O)N(C)[C@@H](Cc1ccccc1)C(N)=O)N(C)C(=O)[C@H](Cc1c[nH]c2ccccc12)NC(=O)CN(C)C(=O)[C@H](Cc1ccc(O)cc1)NC(=O)[C@H](C)NC(=O)[C@@H](CCC(=O)O)NC(=O)[C@@H](CCC(=O)O)NC(=O)[C@@H](CCC(=O)O)NC(=O)[C@@H](C)NC(=O)[C@@H](CCC(=O)O)NC(=O)[C@@H](CCC(=O)O)NC(=O)CN1CCN(CC(=O)O)CCN(CC(=O)O)CCN(CC(=O)O)CC1 [[^68Ga]Ga-DOTA-GA11, metal not drawn] ({DOTA}-[dE][dE][dA][dE][dE][dE]AY[Sar]W[NMeNle]D[NMeF]-NH2)	metabolites in kidney homogenates [2]: no observable metabolites detected; metabolites in liver homogenates [2]: no observable metabolites detected
-4.06 ± 0.14	2.53 ± 0.11	6.7 ± 0.69	6.81 ± 1.4	0.29 ± 0.01	0.14 ± 0.01	4.52 ± 0.38	0.19 ± 0.02	0.34 ± 0.04	0.09 ± 0.02	0.25 ± 0.04	1.38 ± 0.08	24.9 ± 4.57	0.5	0.45	CCCC[C@@H](C(=O)N[C@@H](CC(=O)O)C(=O)N[C@@H](Cc1ccccc1)C(N)=O)N(C)C(=O)[C@H](Cc1c[nH]c2ccccc12)NC(=O)CN(C)C(=O)[C@H](Cc1ccc(O)cc1)NC(=O)[C@H](C)NC(=O)[C@@H](CCC(=O)O)NC(=O)[C@@H](CCC(=O)O)NC(=O)[C@@H](CCC(=O)O)NC(=O)[C@@H](C)NC(=O)[C@@H](CCC(=O)O)NC(=O)[C@@H](CCC(=O)O)NC(=O)CN1CCN(CC(=O)O)CCN(CC(=O)O)CCN(CC(=O)O)CC1 [[^68Ga]Ga-DOTA-GA12, metal not drawn] ({DOTA}-[dE][dE][dA][dE][dE][dE]AY[Sar]W[NMeNle]DF-NH2)	Half-life (t1/2) in Kidney Homogenate ([2]; mouse, tissue homogenate): 46.33 min; Half-life (t1/2) in Liver Homogenate ([2]; mouse, tissue homogenate): 64.28 min; half-life ([2]; mouse, tissue homogenate, Half-life (t1/2) in Kidney Homogenate): 46.3 min; half-life ([2]; mouse, tissue homogenate, Half-life (t1/2) in Liver Homogenate): 64.3 min
